The values that follow come from paper PMC7904550, “Application of grouping and read-across for the evaluation of parabens of different chain lengths with a particular focus on endocrine properties” (Archives of Toxicology, 2021).

The subject of series [1] is human oestrogen receptor α. Details: method as in Watanabe et al. 2013. The settings on record: ref Watanabe et al. 2013, cited from earlier work.
The subject of series [2] is rats. The settings on record: cited from earlier work.
Series [3] can be described thus: Grouping and read-across of NOAEL (ECHA RAAF Scenario 5; analogue approach). The following applies: for NOAEL for systemic repeated-dose toxicity and DART: predicted by read-across from the respective paraben (analogue approach). The text has this: The strength of evidence for the respective AEs was scored by the assessment options indicated in the RAAF ranging from Score 5 (acceptable with high confidence) to Score 1 (not acceptable) (ECHA [2017b]).

The subject of another series is bacteria. The following applies: ref ECHA dissemination portal, cited from earlier work.
Series [4] concerns rats. The settings on record: cited from earlier work. The source holds these as a separate data set.
The test system of series [5] is rats. The following applies: cited from earlier work. The source holds these as a separate data set.
For series [6], the system named is rats. The settings on record: acute oral, ref ECHA dissemination portal, cited from earlier work.
Series [7] is described as follows: Octanol–water partition coefficient (Log Kow). The settings on record: 23 °C, OECD TG 107. It is filed as physicochemical. An excerpt:
(§1) Generally, these parabens have very similar physico-chemical properties.

The conditions of series [8]: cited from earlier work.
The subject of series [9] is human oestrogen receptor β. Details: method as in Watanabe et al. 2013. The following applies: among 12 linear n-alkyl parabens C1 to C12; ref Watanabe et al. 2013; cited from earlier work.
In another series the test system is mammalian cells. The following applies: OECD 476; ref ECHA dissemination portal; cited from earlier work.
Series [10] is described as follows: Acid dissociation constant (pKa). It is filed as physicochemical.
Source text: as §1

Another series relates to oestrogen receptors. Details: method as in Byford et al. 2002. The settings on record: ref Byford et al. 2002; cited from earlier work.
The subject of another series is rabbits. The arrangement: method as in ECHA dissemination portal. The following applies: acute dermal exposure, ref ECHA dissemination portal; cited from earlier work.
The next series relates to male rats. Details: method as in Hoberman et al. 2008. The settings on record: up to 10,000 ppm, corresponding to 1088 ± 68 mg/kg bw/day; ref Hoberman et al. 2008; cited from earlier work.
The next series is described as follows: in vivo. The settings on record: for concentration at 1 h / Tmax / AUC(0-t) / Cmax: Wistar, rat, in vivo; for Tmax / AUC(0-t) / Cmax: po; for AUC(0-t) / Cmax / AUC0-1 h/AUC0–t / C1h/Cmax / Clast / tlast: parent compound. Here is the method:
These studies were conducted similarly to OECD TG 417 applying 500 and 1000 mg/kg body weight (bw) test item via oral gavage to 10 males and 10 females per dose group. Focus of the toxicokinetic evaluation was on the measurement of the serum concentrations of the parent compounds and their (common) major metabolite p-hydroxybenzoic acid by […] in order to assess the systemic uptake and elimination of the parent compounds and this major metabolite [see also ECHA ([2017a])]. The limit of quantification was determined as 10 ng/mL for all parabens, and as 130 ng/mL for p-hydroxybenzoic acid. […] On account of these major aims, investigations of the faeces and urine were not included in the toxicokinetics screening studies.

The test system of the next series is Wistar rats. Details: method as in Zhang et al. 2014. The settings on record: 400 and 1000 mg/kg bw/day oral gavage; ref Zhang et al. 2014; cited from earlier work.
For series [11] the following is noted: ref Yalkowsky and He (2003); cited from earlier work.
Series [12] concerns rats. The following applies: cited from earlier work. This is another data set of the same source.
For series [13] the following is noted: ref Dymicky and Huhtanen (1979), cited in CIR (2008); cited from earlier work.
The subject of series [14] is rats. The settings on record: 5,000, 15,000 and 40,000 ppm in feed, ref Hubbard et al. 2020, cited from earlier work.
On the set-up of series [15]: method as in Hansch et al. (1995). The settings on record: ref Hansch et al. (1995); cited from earlier work.
The mark [16] stands for this setting: sodium salt, read-across from the respective paraben.

Like-named read-outs stand apart in the source and are kept apart here. Marks after values point to notes of the source that are not given here.

With `C[C@]12CC[C@@H]3c4ccc(O)cc4CC[C@H]3[C@@H]1CC[C@@H]2O` [17β-estradiol, reference compound], the “Concentration of receptor effects” value in [1] (receptor subtype not stated) is 2.5 × 10^–12.
With `CCOC(=O)c1ccc([O-])cc1.[Na+]` [Na-ethyl paraben, Sodium ethyl 4-HBA], the “Skin irritation/skin corrosion classification” value with rats [2] (rat, in vivo) is “Not irritating (OECD 404; 1981)”. Also, in series [3], the “NOAEL for systemic repeated-dose toxicity and DART” value is listed as 1000 mg/kg bw/day. The “Mutagenicity in bacteria classification” value in the series with bacteria (setting [16]) is “Not mutagenic (read-across from ethyl paraben)”. Further, the “Eye irritation/eye corrosion classification” value in the series on rats [4] (rat, in vivo) was “Irritating (OECD 405; 1982)”. The Skin sensitisation classification result in the series with rats [5] (rat, in vivo) is on record as “Not sensitising (read-across from ethyl paraben)”. The LD50 in the series on rats [6] (rats, OECD 401) is 3100 OECD 401; 1982) mg/kg bw. In addition, the “Log Kow” value in [7] (pH 10.4) is -0.14 at 23 °C, pH 10.4 (OECD TG 107).
With `CCCOC(=O)c1ccc([O-])cc1.[Na+]` [Na-propyl paraben, Sodium propyl 4-HBA], the “Skin irritation/skin corrosion classification” value in the series on rats [2] (rat, in vivo) is reported as “Not irritating (OECD 404; 1982)”. Moreover, in series [3], the “NOAEL for systemic repeated-dose toxicity and DART” value was 1000 mg/kg bw/day. In the series with bacteria (setting [16]), the “Mutagenicity in bacteria classification” value is reported as “Not mutagenic (read-across from propyl paraben)”. In the series with rats [4] (rat, in vivo), the “Eye irritation/eye corrosion classification” value was “Serious eye damage (OECD 405; 1983)”. Also, the LD50 in the series with rats [6] (rats, OECD 401) is reported as > 5000 OECD 401; 1982) mg/kg bw. Moreover, the “Log Kow” value in series [7] (pH 10.8) was 0.27 at 23 °C, pH 10.8 (OECD TG 107).
On to `O=C(O)c1ccc(O)cc1` [p-hydroxybenzoic acid], for which, in series [8] (ref ECHA registration dossier 15944), the “Systemic toxicity and DART” value is “no systemic toxicity and no DART”. Also, in series [8] (substance evaluation, REACH Article 48, ref ECHA 2014), the Endocrine activity result is listed as “does not exhibit any endocrine activity”.
With `CCCCCOC(=O)c1ccc(O)cc1` [pentyl paraben], the “Concentration of highest potency in activating the receptor” value in series [9] is listed as 10^–8 M.
On to `COC(=O)c1ccc([O-])cc1.[Na+]` [Na-methyl paraben, Sodium methyl 4-HBA], for which, in the series with mammalian cells, the “Mutagenicity in mammalian cells classification” value is “Not mutagenic [a] (OECD 476; 2012)”. Further, the “Mutagenicity in bacteria classification” value in the series on bacteria (OECD 471) is “Not mutagenic [a] (OECD 471; 2012)”. In addition, the pKa in series [10] is 8.4 (OECD TG 112).
Turning to `CCCCCCCOC(=O)c1ccc(O)cc1` [heptyl paraben], the “Concentration of highest potency in activating the receptor” value in [1] (among 12 linear n-alkyl parabens C1 to C12) was 10^–7 M.
With `CCCCOC(=O)c1ccc(O)cc1` [Butyl paraben, Butyl 4-hydroxybenzoate], the “Skin irritation/skin corrosion classification” value in the series with rats [2] (read-across from iso-butyl paraben, OECD 439, ref ECHA dissemination portal) was “Irritating (read-across; OECD 439; 2016) [a]”. In addition, the “Rank of oestrogen receptor activation among shorter-chained parabens” value in the series on oestrogen receptors is given as “the most activation”. In addition, the NOAEL result with rabbits was “[b] A further acute toxicity study was conducted as dermal exposure study in rabbits yielding NOAEL > 2000 mg/kg bw”. The “Effects in male rats” value in the series with male rats is “no effects”. Moreover, the concentration at 1 h in the series “in vivo” (female, 500 mg/kg) was determined as 31.5 ng/mL; in “in vivo” (female, 1000 mg/kg) it was 59.1 ng/mL; in “in vivo” (male, 500 mg/kg) it was 161 ng/mL; in “in vivo” (male, 1000 mg/kg), 373 ng/mL. The Tmax (commonly the time at which the peak concentration occurs) in the series “in vivo” (female, 500 mg/kg) amounted to 4.8 min; in the series “in vivo” (female, 1000 mg/kg) it was 4.8 min. Further, the AUC(0-t) (commonly exposure summed from dosing to a finite time, without extrapolation to infinity) in “in vivo” (female, 500 mg/kg, AUC0-1 h) was 149 ng·h/mL; in the series “in vivo” (female, 500 mg/kg, AUC0–t), 336 ng·h/mL; in “in vivo” (female, 1000 mg/kg, AUC0-1 h) it was 191 ng·h/mL; in “in vivo” (female, 1000 mg/kg, AUC0–t), 404 ng·h/mL; in “in vivo” (male, 500 mg/kg, AUC0-1 h), 300 ng·h/mL; in “in vivo” (male, 500 mg/kg, AUC0–t), 705 ng·h/mL. Moreover, the AUC(0-t) in “in vivo” (male, 1000 mg/kg, AUC0-1 h) amounted to 860 ng·h/mL; in the series “in vivo” (male, 1000 mg/kg, AUC0–t), 1580 ng·h/mL. In addition, the Cmax – broadly, the peak of the concentration-time curve – came out at 741 ng/mL in the series “in vivo” (female, 500 mg/kg); 854 ng/mL in the series “in vivo” (female, 1000 mg/kg); 1770 ng/mL in the series “in vivo” (male, 500 mg/kg); 6520 ng/mL in “in vivo” (male, 1000 mg/kg); 7000 ng/mL in “in vivo” (male, 1000 mg/kg, males). The “AUC0-1 h/AUC0–t” value in the series “in vivo” (500 mg/kg, female) is on record as 44%; in the series “in vivo” (500 mg/kg, male), 43%; in “in vivo” (1000 mg/kg, female), 47%; in “in vivo” (1000 mg/kg, male), 54%. The C1h/Cmax is recorded as 4.3% in “in vivo” (500 mg/kg, female); 9.1% in the series “in vivo” (500 mg/kg, male); 6.9% in “in vivo” (1000 mg/kg, female); 5.7% in the series “in vivo” (1000 mg/kg, male). Further, the Clast in “in vivo” (500 mg/kg, female) turned out to be 23.9 ng/mL; in “in vivo” (500 mg/kg, male), 49.2 ng/mL; in “in vivo” (1000 mg/kg, female), 23.6 ng/mL; in “in vivo” (1000 mg/kg, male), 18.4 ng/mL. Also, the tlast in the series “in vivo” (500 mg/kg, female) is on record as 8.0 h; in “in vivo” (500 mg/kg, male) it was 8.0 h; in “in vivo” (1000 mg/kg, female), 8.0 h; in the series “in vivo” (1000 mg/kg, male), 8.0 h. Further, in series [3] (extrapolation, appears justifiable), the “NOAEL for repeated-dose toxicity and DART” value is given as 1000 mg/kg bw/day. In addition, the “Epididymal sperm count and daily sperm production” value in the series on Wistar rats is “dose-dependently reduced epididymal sperm count and daily sperm production”. Besides, the Water solubility result in series [11] is “Insoluble [e]”. Further, the “Mutagenicity in bacteria classification” value in the series with bacteria (read-across from iso-butyl paraben, OECD 471) is “Not mutagenic (read-across; OECD 471; 2016) [a]”. In addition, in the series with rats [12] (derived from Zhang et al. (2014), ref CIR 2019), the “NOAEL, point-of-departure” value is 160 mg/kg bw/day. Besides, in the series with rats [12] (juvenile rats, subcutaneous, 17 days (PND 2-18), single dose tested (Fisher et al. 1999), ref SCCS 2010), the NOEL is 2 mg/kg bw/day. The pKa in series [13] was 8.37 [c]. Besides, the “Eye irritation/eye corrosion classification” value with rats [4] (read-across from iso-butyl paraben, OECD 437, ref ECHA dissemination portal) is “Ser. eye damage (read-across; OECD 437; 2016) [a]”. Moreover, in the series with rats [5] (read-across from iso-butyl paraben, OECD 429, ref ECHA dissemination portal), the Skin sensitisation classification result was “Not sensitising (read-across; OECD 429; 2016) [a]”. The “Adverse alterations of fertility, fecundity, pubertal attainment or any reproductive parameters” value with rats [14] (parent, first, second generation) is given as “no association”. Further, the Liver findings result with rats [14] was “exposure-dependent increases in liver weight and incidences of non-neoplastic liver lesions”. Moreover, the “Log Kow” value in [15] is 3.54 [d]. In the series with rats [6] (OECD 423, read-across from iso-butyl paraben), the LD50 was > 2000 (read across; OECD 423; 2018) [a, b] mg/kg bw.
